This assay deals with BTK (Homo sapiens (Human), UniProt Q06187). The experiment in a line: Btk kinase assay (HTRF). The note with it: [ATP]=80 μM, BTK=3.4 nM; read-out: BTK Inhibition. Type of assay: biochemical. In outline:
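HTRF kinase read-out (665/615 nm ratio, excitation 330 nm) after EDTA quench and 1 h detection incubation. Reaction: 3.4 nM BTK, ATP 80 μM, peptide substrate 1 μM, compound, HEPES pH 7.0 buffer, 1 h; IC50 derived using uninhibited and enzyme-free controls.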
In general terms: In TR-FRET formats the signal depends on donor and acceptor labels being close together.
Chain of BTK (Q06187 whole entry, species assumed): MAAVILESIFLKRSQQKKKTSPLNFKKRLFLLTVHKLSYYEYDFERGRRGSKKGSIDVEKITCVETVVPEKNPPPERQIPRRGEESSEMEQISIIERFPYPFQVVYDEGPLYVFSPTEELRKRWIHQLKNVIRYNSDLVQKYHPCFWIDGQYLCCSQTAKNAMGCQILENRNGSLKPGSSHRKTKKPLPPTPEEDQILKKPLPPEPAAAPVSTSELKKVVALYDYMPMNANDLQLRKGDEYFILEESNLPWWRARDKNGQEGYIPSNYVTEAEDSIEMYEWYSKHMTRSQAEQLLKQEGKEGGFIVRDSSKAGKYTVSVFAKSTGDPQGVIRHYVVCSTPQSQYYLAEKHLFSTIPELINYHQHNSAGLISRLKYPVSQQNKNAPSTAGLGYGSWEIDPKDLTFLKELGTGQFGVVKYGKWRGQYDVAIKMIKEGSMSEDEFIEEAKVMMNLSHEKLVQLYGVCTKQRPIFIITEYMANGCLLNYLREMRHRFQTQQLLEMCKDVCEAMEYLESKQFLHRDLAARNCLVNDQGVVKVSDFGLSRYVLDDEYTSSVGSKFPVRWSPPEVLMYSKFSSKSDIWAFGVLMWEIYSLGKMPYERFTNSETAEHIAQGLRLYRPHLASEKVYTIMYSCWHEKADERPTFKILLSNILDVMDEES
For `C=CC(=O)Nc1cccc(-n2c(=O)n(-c3ccc(OCc4ccc(F)c(F)c4)cc3)c3cnccc32)c1` [Example 241, N-(3-(3-(4-((3,4-difluorobenzyl)oxy)phenyl)-2-oxo-2,3-dihydro-1H-imidazo[4,5-c]pyridin-1-yl)phenyl)acrylamide], the IC50 was 100 to 1000 nM.
For the compound `C=CC(=O)N1CCCC1Cn1c(=O)n(-c2ccc(Oc3ccccc3)cc2)c2cnccc21` (stereo not drawn) [Example 21, 1-((1-acryloylpyrrolidin-2-yl)methyl)-3-(4-phenoxyphenyl)-1H-imidazo[4,5-c]pyridin-2(3H)-one], the IC50 was in the range of 10 to 100 nM.
In the case of `O=C(/C=C/c1ccccc1)N1CC[C@@H](n2c(=O)n(-c3ccc(Oc4ccccc4)c(Cl)c3)c3cnccc32)C1` [Example 22, (R,E)-3-(3-chloro-4-phenoxyphenyl)-1-(1-cinnamoylpyrrolidin-3-yl)-1H-imidazo[4,5-c]pyridin-2(3H)-one] it was no less than 10000 nM; in that of `C=CC(=O)N1CCC[C@@H](n2c(=O)n(-c3ccc(Oc4ccccc4)c(F)c3)c3cnccc32)C1` [Example 12, (R)-1-(1-acryloylpiperidin-3-yl)-3-(3-fluoro-4-phenoxyphenyl)-1H-imidazo[4,5-c]pyridin-2(3H)-one], 10 to 100 nM; in that of `CC#CC(=O)N1CCC[C@@H](n2c(=O)n(-c3ccc(Oc4cccc(OC)c4F)cc3)c3cnccc32)C1` [Example 175, (R)-1-(1-(but-2-ynoyl)piperidin-3-yl)-3-(4-(2-fluoro-3-methoxyphenoxy)phenyl)-1H-imidazo[4,5-c]pyridin-2(3H)-one], 100 to 1000 nM.
Turning to `C=CC(=O)N1CC[C@H](n2c(=O)n(-c3ccc(Oc4ccccc4)cc3)c3/c(=N/O)[nH]cnc32)C1` [Example 177, (S,Z)-9-(1-acryloylpyrrolidin-3-yl)-6-(hydroxyimino)-7-(4-phenoxyphenyl)-7,9-dihydro-1H-purin-8(6H)-one], the IC50 lay in the range of 100 to 1000 nM.
In the case of `C=CC(=O)N1CC[C@@H](n2c(=O)n(-c3ccc(OCc4ccccc4F)c(Cl)c3)c3cnccc32)C1` [Example 236, (R)-1-(1-acryloylpyrrolidin-3-yl)-3-(3-chloro-4-((2-fluorobenzyl)oxy)phenyl)-1,3-dihydro-2H-imidazo[4,5-c]pyridin-2-one] it was 100 to 1000 nM.
Turning to `C=CC(=O)N1CC[C@@H](n2c(=O)n(-c3ccc(Oc4cccc(OC)c4)c(F)c3)c3cnccc32)C1` [Example 53, (R)-1-(1-acryloylpyrrolidin-3-yl)-3-(3-fluoro-4-(3-methoxyphenoxy)phenyl)-1H-imidazo[4,5-c]pyridin-2(3H)-one], the IC50 lay in the range of 10 to 100 nM.
As to `NC(=O)C(=O)N1CCCC(n2c(=O)n(-c3ccc(Oc4ccccc4)cc3)c3cnccc32)C1` (stereo not drawn) [Example 194, 2-oxo-2-(3-(2-oxo-3-(4-phenoxyphenyl)-2,3-dihydro-1H-imidazo[4,5-c]pyridin-1-yl)piperidin-1-yl)acetamide], the IC50 is no less than 10000 nM.
For `C=CC(=O)Nc1cccc(-n2c(=O)n(-c3ccc(Oc4ccc(C(F)(F)F)cc4)cc3)c3cnccc32)c1` [Example 123, N-(3-(2-oxo-3-(4-(4-(trifluoromethyl)phenoxy)phenyl)-2,3-dihydro-1H-imidazo[4,5-c]pyridin-1-yl)phenyl)acrylamide] the value was no less than 10000 nM; for `C=CC(=O)N1CC[C@@H](n2c(=O)n(-c3ccc(Oc4ccc(OC)cc4)c(Cl)c3)c3cnccc32)C1` [Example 42, (R)-1-(1-acryloylpyrrolidin-3-yl)-3-(3-chloro-4-(4-methoxyphenoxy)phenyl)-1H-imidazo[4,5-c]pyridine-2(3H)-one], 10 to 100 nM; for `C=CC(=O)Nc1cccc(-n2c(=O)n(-c3ccc(OCc4ccccc4)c(F)c3)c3cnccc32)c1` [Example 234, N-(3-(3-(4-(benzyloxy)-3-fluorophenyl)-2-oxo-2,3-dihydro-1H-imidazo[4,5-c]pyridin-1-yl)phenyl)acrylamide], 100 to 1000 nM.
